Measurements published in patent publication US10231954B2, “Neurodegenerative therapies” (LYTIX BIOPHARMA AS, priority 2014, dated 2019).

Legend:
PKA = PKA (Homo sapiens, UniProt P17612); assay: Kinase profiling PKA; type: biochemical; conditions: 100 micromolar inhibitor concentration, 100 is no change
Description: (§1) Any value less that 25 is considered to be highly significant inhibition.

PKCa = PKCa (Homo sapiens, UniProt P17252); assay: Kinase profiling PKCa; type: biochemical; conditions: 100 micromolar inhibitor concentration, 100 is no change
Description: as §1

IRAK4 = target: T1, IRAK4 (Homo sapiens, UniProt Q9NWZ3); assay: Kinase profiling IRAK4; type: biochemical; conditions: 100 micromolar inhibitor concentration, 100 is no change
T1 sequence (Q9NWZ3 1-460): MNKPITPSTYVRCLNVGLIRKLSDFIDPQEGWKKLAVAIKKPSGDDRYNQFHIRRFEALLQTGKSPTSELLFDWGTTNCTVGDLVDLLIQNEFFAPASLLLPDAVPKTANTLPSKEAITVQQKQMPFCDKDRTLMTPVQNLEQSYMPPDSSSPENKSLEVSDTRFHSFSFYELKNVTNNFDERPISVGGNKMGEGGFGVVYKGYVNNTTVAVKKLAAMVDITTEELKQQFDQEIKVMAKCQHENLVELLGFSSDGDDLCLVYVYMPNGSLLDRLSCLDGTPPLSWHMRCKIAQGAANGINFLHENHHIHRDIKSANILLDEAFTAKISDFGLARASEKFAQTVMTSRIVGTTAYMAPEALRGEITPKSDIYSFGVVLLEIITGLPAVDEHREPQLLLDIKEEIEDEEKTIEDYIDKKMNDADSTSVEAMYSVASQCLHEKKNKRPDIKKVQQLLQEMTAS
Description: as §1

TAK1 = target: T2, TAK1 (Homo sapiens, UniProt O43318); assay: Kinase profiling TAK1; type: biochemical; conditions: 100 micromolar inhibitor concentration, 100 is no change
T2 sequence (O43318 1-303 limits assumed): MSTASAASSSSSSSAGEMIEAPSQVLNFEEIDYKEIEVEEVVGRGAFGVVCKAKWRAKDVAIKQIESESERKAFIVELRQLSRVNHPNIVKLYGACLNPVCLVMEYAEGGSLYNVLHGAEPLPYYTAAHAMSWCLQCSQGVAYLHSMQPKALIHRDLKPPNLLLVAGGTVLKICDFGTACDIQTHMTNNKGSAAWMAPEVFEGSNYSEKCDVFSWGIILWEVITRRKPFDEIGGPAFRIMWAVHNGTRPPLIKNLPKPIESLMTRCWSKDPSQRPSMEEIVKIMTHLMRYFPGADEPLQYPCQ
T2 sequence (Q15750 437-504 partner limits assumed): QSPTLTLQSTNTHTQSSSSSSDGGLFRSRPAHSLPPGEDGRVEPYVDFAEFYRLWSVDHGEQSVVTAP
Description: as §1

ROCK 2 = ROCK 2 (Homo sapiens, UniProt O75116); assay: Kinase profiling ROCK 2; type: biochemical; conditions: 100 micromolar inhibitor concentration, 100 is no change
ROCK 2, sequence (O75116 whole entry, species assumed): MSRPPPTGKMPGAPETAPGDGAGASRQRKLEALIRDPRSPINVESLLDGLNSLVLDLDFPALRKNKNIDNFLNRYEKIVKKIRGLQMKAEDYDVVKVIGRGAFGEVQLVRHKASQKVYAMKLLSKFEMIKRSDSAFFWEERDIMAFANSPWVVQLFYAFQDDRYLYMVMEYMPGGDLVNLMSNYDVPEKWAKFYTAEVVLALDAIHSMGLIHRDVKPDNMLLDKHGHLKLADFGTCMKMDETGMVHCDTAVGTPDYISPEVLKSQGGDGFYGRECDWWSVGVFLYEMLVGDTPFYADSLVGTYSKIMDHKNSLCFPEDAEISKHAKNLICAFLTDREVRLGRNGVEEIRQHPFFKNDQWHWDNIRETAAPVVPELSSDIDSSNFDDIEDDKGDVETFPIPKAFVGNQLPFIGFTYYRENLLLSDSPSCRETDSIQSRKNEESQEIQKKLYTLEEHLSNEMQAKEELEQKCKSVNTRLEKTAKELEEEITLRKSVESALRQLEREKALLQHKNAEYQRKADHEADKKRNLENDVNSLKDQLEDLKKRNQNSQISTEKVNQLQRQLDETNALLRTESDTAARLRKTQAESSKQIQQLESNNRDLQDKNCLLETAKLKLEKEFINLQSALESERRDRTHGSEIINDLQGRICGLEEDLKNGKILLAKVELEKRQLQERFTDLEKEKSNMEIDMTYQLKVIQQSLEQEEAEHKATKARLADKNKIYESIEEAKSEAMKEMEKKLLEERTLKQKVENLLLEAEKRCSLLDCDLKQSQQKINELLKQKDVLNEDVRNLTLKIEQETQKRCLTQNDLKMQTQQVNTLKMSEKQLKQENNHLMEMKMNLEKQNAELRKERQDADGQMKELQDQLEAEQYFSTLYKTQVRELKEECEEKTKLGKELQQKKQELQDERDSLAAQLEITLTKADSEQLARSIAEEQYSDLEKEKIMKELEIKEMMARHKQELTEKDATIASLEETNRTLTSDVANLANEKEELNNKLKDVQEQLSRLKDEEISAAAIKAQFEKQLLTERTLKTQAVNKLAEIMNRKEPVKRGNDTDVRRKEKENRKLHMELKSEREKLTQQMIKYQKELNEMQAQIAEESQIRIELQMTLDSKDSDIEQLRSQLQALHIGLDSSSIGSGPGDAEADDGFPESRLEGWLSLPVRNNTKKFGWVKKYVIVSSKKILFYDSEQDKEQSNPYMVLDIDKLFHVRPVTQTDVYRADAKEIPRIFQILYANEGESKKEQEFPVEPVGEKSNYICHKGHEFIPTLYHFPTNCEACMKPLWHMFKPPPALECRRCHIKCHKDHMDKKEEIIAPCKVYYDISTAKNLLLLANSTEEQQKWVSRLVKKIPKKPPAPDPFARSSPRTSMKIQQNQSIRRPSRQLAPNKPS
Description: as §1

EPH-A2 = EPH-A2 (Homo sapiens, UniProt P29317); assay: Kinase profiling EPH-A2; type: biochemical; conditions: 100 micromolar inhibitor concentration, 100 is no change
Description: as §1

JAK2 = JAK2 (Homo sapiens, UniProt O60674); assay: Kinase profiling JAK2; type: biochemical; conditions: 100 micromolar inhibitor concentration, 100 is no change
JAK2, sequence (O60674 whole entry, species assumed): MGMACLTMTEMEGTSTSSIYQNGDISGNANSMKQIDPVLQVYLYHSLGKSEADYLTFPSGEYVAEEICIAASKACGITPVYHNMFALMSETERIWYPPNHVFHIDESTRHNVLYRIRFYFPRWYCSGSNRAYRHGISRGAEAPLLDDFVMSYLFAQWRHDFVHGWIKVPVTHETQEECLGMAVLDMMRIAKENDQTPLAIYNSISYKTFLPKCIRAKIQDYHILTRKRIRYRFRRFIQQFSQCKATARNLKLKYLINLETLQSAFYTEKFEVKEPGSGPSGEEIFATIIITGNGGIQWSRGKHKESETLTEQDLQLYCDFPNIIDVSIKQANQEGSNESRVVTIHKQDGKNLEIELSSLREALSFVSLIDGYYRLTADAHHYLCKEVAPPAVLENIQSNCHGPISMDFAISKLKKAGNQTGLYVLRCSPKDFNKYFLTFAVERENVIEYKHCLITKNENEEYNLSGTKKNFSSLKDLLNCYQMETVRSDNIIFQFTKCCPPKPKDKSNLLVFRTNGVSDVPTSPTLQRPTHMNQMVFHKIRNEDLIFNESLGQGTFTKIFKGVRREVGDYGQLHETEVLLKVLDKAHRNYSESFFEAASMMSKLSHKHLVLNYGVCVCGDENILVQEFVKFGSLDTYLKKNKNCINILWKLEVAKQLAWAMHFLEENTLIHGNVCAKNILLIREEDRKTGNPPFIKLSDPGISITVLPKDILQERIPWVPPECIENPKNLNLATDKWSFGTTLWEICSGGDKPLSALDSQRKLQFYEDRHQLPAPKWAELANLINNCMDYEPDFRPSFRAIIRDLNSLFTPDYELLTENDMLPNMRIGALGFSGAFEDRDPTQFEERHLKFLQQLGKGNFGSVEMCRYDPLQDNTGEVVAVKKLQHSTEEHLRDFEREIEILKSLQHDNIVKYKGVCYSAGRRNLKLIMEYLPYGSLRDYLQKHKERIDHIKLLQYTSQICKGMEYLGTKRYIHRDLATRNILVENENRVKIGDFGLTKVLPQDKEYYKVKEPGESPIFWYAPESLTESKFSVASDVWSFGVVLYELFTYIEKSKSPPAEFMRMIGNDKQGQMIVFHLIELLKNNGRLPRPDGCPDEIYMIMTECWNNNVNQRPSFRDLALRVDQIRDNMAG
Description: as §1

p38a MAPK = p38a MAPK (Homo sapiens, UniProt Q16539); assay: Kinase profiling p38a MAPK; type: biochemical; conditions: 100 micromolar inhibitor concentration, 100 is no change
p38a MAPK, sequence (Q16539 whole entry): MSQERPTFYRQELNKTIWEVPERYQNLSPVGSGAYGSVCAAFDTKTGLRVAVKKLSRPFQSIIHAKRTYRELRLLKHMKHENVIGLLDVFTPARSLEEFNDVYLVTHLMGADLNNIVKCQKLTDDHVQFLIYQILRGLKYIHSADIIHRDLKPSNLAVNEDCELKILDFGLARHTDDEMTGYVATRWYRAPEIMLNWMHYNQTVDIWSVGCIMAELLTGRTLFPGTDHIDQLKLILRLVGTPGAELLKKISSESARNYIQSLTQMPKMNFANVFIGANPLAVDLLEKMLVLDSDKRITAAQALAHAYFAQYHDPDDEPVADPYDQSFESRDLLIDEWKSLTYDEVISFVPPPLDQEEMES
Description: as §1

RIPK2 = RIPK2 (Homo sapiens, UniProt O43353); assay: Kinase profiling RIPK2; type: biochemical; conditions: 100 micromolar inhibitor concentration, 100 is no change
RIPK2, sequence (O43353 whole entry, species assumed): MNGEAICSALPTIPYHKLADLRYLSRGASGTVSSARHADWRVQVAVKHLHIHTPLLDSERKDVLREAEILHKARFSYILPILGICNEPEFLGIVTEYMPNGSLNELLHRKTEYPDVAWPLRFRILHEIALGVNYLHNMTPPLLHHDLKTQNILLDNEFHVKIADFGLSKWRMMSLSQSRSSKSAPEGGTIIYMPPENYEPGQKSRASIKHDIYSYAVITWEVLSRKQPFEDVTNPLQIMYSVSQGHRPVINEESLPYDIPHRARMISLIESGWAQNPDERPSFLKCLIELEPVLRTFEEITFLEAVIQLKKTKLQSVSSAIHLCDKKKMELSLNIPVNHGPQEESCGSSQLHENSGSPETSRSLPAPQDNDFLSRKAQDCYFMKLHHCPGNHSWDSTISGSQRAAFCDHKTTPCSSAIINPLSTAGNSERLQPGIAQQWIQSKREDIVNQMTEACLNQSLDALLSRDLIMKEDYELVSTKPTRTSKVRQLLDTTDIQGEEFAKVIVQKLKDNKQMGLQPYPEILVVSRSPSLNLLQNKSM
Description: as §1

PKD1 = target: T3, PKD1 (Homo sapiens, UniProt Q15139); assay: Kinase profiling PKD1; type: biochemical; conditions: 100 micromolar inhibitor concentration, 100 is no change
T3 sequence (Q15139 1-912): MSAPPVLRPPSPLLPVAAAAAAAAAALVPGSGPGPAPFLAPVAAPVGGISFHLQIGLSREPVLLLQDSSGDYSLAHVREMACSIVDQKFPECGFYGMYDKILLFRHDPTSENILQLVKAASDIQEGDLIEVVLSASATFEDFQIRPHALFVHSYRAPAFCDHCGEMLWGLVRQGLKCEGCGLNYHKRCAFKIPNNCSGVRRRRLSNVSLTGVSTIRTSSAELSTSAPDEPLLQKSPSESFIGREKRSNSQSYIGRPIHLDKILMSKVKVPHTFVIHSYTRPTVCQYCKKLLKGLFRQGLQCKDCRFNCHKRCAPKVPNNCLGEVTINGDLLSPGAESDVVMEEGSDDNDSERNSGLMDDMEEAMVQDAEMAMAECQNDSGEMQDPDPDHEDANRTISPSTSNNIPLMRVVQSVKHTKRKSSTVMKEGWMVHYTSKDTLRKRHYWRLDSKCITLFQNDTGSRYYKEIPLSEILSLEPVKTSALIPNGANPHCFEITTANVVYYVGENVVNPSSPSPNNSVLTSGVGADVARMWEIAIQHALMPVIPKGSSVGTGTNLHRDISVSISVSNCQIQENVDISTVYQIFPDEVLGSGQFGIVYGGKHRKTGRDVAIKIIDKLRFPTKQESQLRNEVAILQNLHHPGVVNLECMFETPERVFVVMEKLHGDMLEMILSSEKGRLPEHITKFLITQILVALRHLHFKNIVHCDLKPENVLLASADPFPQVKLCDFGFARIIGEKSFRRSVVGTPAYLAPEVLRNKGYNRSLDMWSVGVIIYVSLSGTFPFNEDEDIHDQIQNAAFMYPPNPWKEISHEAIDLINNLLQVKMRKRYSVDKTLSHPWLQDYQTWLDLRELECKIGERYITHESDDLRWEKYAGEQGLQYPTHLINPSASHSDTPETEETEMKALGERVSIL
Description: as §1

p38g MAPK = target: T4, p38g MAPK (Homo sapiens, UniProt P53778); assay: Kinase profiling p38g MAPK; type: biochemical; conditions: 100 micromolar inhibitor concentration, 100 is no change
T4 sequence (P53778 1-367): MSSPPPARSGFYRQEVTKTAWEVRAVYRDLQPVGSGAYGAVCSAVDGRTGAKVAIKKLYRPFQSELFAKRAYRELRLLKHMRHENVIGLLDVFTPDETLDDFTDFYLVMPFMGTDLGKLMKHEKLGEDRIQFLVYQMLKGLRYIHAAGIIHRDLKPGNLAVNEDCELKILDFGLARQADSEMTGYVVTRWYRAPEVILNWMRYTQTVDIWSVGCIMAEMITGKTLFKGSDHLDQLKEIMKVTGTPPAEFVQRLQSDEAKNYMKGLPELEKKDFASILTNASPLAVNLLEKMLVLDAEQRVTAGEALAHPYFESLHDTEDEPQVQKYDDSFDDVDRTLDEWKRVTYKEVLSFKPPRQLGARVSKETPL
Description: as §1

PIM1 = PIM1 (Homo sapiens, UniProt P11309); assay: Kinase profiling PIM1; type: biochemical; conditions: 100 micromolar inhibitor concentration, 100 is no change
PIM1, sequence (P11309 whole entry, species assumed): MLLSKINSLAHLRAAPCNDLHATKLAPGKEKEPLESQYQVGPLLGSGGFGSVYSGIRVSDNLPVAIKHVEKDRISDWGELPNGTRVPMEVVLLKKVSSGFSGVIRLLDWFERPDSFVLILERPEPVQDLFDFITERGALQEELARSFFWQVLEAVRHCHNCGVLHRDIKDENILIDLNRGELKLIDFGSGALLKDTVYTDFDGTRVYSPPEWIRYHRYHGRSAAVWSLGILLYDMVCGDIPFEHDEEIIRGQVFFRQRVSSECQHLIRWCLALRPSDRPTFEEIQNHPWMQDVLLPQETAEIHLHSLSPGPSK
Description: as §1

AMPK (hum) = assay: Kinase profiling AMPK (hum); type: biochemical, human; conditions: 100 micromolar inhibitor concentration; 100 is no change
Description: as §1

| SMILES | residual kinase activity, PKA (PKA) | residual kinase activity, PKCa (PKCa) | residual kinase activity, IRAK4 (IRAK4) | residual kinase activity, TAK1 (TAK1) | residual kinase activity, ROCK 2 (ROCK 2) | residual kinase activity, EPH-A2 (EPH-A2) | residual kinase activity, JAK2 (JAK2) | residual kinase activity, p38a MAPK (p38a MAPK) | residual kinase activity, RIPK2 (RIPK2) | residual kinase activity, PKD1 (PKD1) | residual kinase activity, p38g MAPK (p38g MAPK) | residual kinase activity, PIM1 (PIM1) | residual kinase activity, AMPK (hum) (AMPK (hum)) | also measured |
| --- | --- | --- | --- | --- | --- | --- | --- | --- | --- | --- | --- | --- | --- | --- |
| O=C(Nc1nc2cc(O)ccc2s1)c1ccncc1 [Compound 03-11] | 110 | 91 | 69 | 55 | 80 | 84 | 66 | 106 | 60 | 74 | 93 | 74 | 98 | – |
| O=C(Nc1nc2ccc(O)cc2s1)c1ccccn1 [Compound 03-12] | 97 | 101 | 54 | 33 | 68 | 85 | 71 | 107 | 29 | 70 | 89 | 51 | 90 | – |
| O=C(Nc1nc2cc(O)ccc2s1)c1ccccn1 [Compound 03-13] | 102 | 112 | 55 | 34 | 96 | 81 | 98 | 96 | 27 | 76 | 94 | 39 | 71 | – |
| COc1ccc2sc(NC(C)=O)nc2c1 [Compound 03-21] | – | – | – | – | – | – | – | – | – | – | – | – | 81 | remaining activity at 100 µM (PKA; read-out: residual kinase activity, PKA): 11%; remaining activity at 100 µM (PKCa; read-out: residual kinase activity, PKCa): 101%; remaining activity at 100 µM (IRAK4; read-out: residual kinase activity, IRAK4): 52%; remaining activity at 100 µM (TAK1; read-out: residual kinase activity, TAK1): 50%; remaining activity at 100 µM (ROCK 2; read-out: residual kinase activity, ROCK 2): 52%; remaining activity at 100 µM (EPH-A2; read-out: residual kinase activity, EPH-A2): 89%; remaining activity at 100 µM (JAK2; read-out: residual kinase activity, JAK2): 88%; remaining activity at 100 µM (p38a MAPK; read-out: residual kinase activity, p38a MAPK): 96%; remaining activity at 100 µM (RIPK2; read-out: residual kinase activity, RIPK2): 29%; remaining activity at 100 µM (PKD1; read-out: residual kinase activity, PKD1): 59%; remaining activity at 100 µM (p38g MAPK; read-out: residual kinase activity, p38g MAPK): 56%; remaining activity at 100 µM (PIM1; read-out: residual kinase activity, PIM1): 8% |
